Legend:
Experiment in all cases: relative viability (nuclei count vs DMSO), 5 days (fraction); higher = more cells survive
A549 = test system: A549
Summary of the method: (§1)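 Relative viability divides the nuclei count in treated wells by that in vehicle wells. Lung cancer cell lines were seeded in 1536-well plates, dosed by pin tool the next day, and fixed and stained after 5 days in one step with final 0.05% Triton X-100, 1% formaldehyde and 1 ug/ml Hoechst. Dosing was a single drug or a fixed anchor-drug dose plus five library-drug doses (not always all listed) in √10 steps, and values are medians of duplicate plates imaged at 4×.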

Calu-6 = test system: Calu-6
Summary of the method: as §1

EBC-1 = test system: EBC-1
Summary of the method: as §1

IA-LM = test system: IA-LM
Summary of the method: as §1

LCLC-97TM1 = test system: LCLC-97TM1
Summary of the method: as §1

NCI-H1299 = test system: NCI-H1299
Summary of the method: as §1

NCI-H1355 = test system: NCI-H1355
Summary of the method: as §1

NCI-H1703 = test system: NCI-H1703
Summary of the method: as §1

NCI-H1993 = test system: NCI-H1993
Summary of the method: as §1

NCI-H23 = test system: NCI-H23
Summary of the method: as §1

NCI-H322M = test system: NCI-H322M
Summary of the method: as §1

NCI-H596 = test system: NCI-H596
Summary of the method: as §1

UMC-11 = test system: UMC-11
Summary of the method: as §1

SMILES: O=c1cc(-c2cccc3c2Sc2ccccc2S3)oc(N2CCOCC2)c1 + CS(=O)(=O)N1CCN(Cc2cc3nc(-c4cccc5[nH]ncc45)nc(N4CCOCC4)c3s2)CC1 [Pictilisib] (partner 1 µM)
- relative viability (A549; first compound 0.08 µM): 0.542
- relative viability (A549; first compound 0.253 µM): 0.852
- relative viability (A549; first compound 0.8 µM): 0.681
- relative viability (A549; first compound 2.53 µM): 0.481
- relative viability (A549; first compound 8 µM): 0.651
- relative viability (Calu-6; first compound 0.08 µM): 0.86
- relative viability (Calu-6; first compound 0.253 µM): 0.882
- relative viability (Calu-6; first compound 0.8 µM): 0.96
- relative viability (Calu-6; first compound 2.53 µM): 0.959
- relative viability (Calu-6; first compound 8 µM): 0.871
- relative viability (EBC-1; first compound 0.08 µM): 0.352
- relative viability (EBC-1; first compound 0.253 µM): 0.469
- relative viability (EBC-1; first compound 0.8 µM): 0.342
- relative viability (EBC-1; first compound 2.53 µM): 0.401
- relative viability (EBC-1; first compound 8 µM): 0.298
- relative viability (IA-LM; first compound 0.08 µM): 0.278
- relative viability (IA-LM; first compound 0.8 µM): 0.328
- relative viability (IA-LM; first compound 2.53 µM): 0.346
- relative viability (IA-LM; first compound 8 µM): 0.315
- relative viability (LCLC-97TM1; first compound 0.08 µM): 0.166
- relative viability (LCLC-97TM1; first compound 0.253 µM): 0.174
- relative viability (LCLC-97TM1; first compound 0.8 µM): 0.208
- relative viability (LCLC-97TM1; first compound 2.53 µM): 0.158
- relative viability (LCLC-97TM1; first compound 8 µM): 0.184
- relative viability (NCI-H1299; first compound 0.08 µM): 0.679
- relative viability (NCI-H1299; first compound 0.253 µM): 0.827
- relative viability (NCI-H1299; first compound 0.8 µM): 0.856
- relative viability (NCI-H1299; first compound 2.53 µM): 0.763
- relative viability (NCI-H1299; first compound 8 µM): 0.854
- relative viability (NCI-H1355; first compound 0.08 µM): 0.457
- relative viability (NCI-H1355; first compound 0.253 µM): 0.456
- relative viability (NCI-H1355; first compound 0.8 µM): 0.362
- relative viability (NCI-H1355; first compound 2.53 µM): 0.405
- relative viability (NCI-H1355; first compound 8 µM): 0.344
- relative viability (NCI-H1703; first compound 0.253 µM): 0.25
- relative viability (NCI-H1703; first compound 0.8 µM): 0.279
- relative viability (NCI-H1703; first compound 2.53 µM): 0.241
- relative viability (NCI-H1703; first compound 8 µM): 0.316
- relative viability (NCI-H1993; first compound 0.08 µM): 0.942
- relative viability (NCI-H1993; first compound 0.253 µM): 0.759
- relative viability (NCI-H1993; first compound 0.8 µM): 0.894
- relative viability (NCI-H1993; first compound 2.53 µM): 0.846
- relative viability (NCI-H1993; first compound 8 µM): 0.805
- relative viability (NCI-H23; first compound 0.08 µM): 0.559
- relative viability (NCI-H23; first compound 0.253 µM): 0.523
- relative viability (NCI-H23; first compound 0.8 µM): 0.47
- relative viability (NCI-H23; first compound 2.53 µM): 0.4
- relative viability (NCI-H23; first compound 8 µM): 0.457
- relative viability (NCI-H322M; first compound 0.08 µM): 0.512
- relative viability (NCI-H322M; first compound 0.253 µM): 0.553
- relative viability (NCI-H322M; first compound 0.8 µM): 0.419
- relative viability (NCI-H322M; first compound 2.53 µM): 0.585
- relative viability (NCI-H322M; first compound 8 µM): 0.471
- relative viability (NCI-H596; first compound 0.08 µM): 0.34
- relative viability (NCI-H596; first compound 0.253 µM): 0.419
- relative viability (NCI-H596; first compound 0.8 µM): 0.357
- relative viability (NCI-H596; first compound 2.53 µM): 0.371
- relative viability (NCI-H596; first compound 8 µM): 0.403
- relative viability (UMC-11; first compound 0.08 µM): 0.815
- relative viability (UMC-11; first compound 0.253 µM): 1.09
- relative viability (UMC-11; first compound 0.8 µM): 0.992
- relative viability (UMC-11; first compound 2.53 µM): 0.752
- relative viability (UMC-11; first compound 8 µM): 1

SMILES: COc1nc(C)cnc1NS(=O)(=O)c1cccnc1-c1ccc(-c2nnco2)cc1 [Zibotentan] + C[C@@H](Oc1cc(-c2cnn(C3CCNCC3)c2)cnc1N)c1c(Cl)ccc(F)c1Cl [Crizotinib] (partner 1 µM)
- relative viability (A549; first compound 0.08 µM): 0.932
- relative viability (A549; first compound 0.253 µM): 0.696
- relative viability (A549; first compound 0.8 µM): 0.742
- relative viability (A549; first compound 2.53 µM): 0.761
- relative viability (Calu-6; first compound 0.08 µM): 0.854
- relative viability (Calu-6; first compound 0.253 µM): 0.786
- relative viability (Calu-6; first compound 0.8 µM): 0.741
- relative viability (Calu-6; first compound 2.53 µM): 0.752
- relative viability (EBC-1; first compound 0.08 µM): 0.176
- relative viability (EBC-1; first compound 0.253 µM): 0.194
- relative viability (EBC-1; first compound 0.8 µM): 0.202
- relative viability (EBC-1; first compound 2.53 µM): 0.223
- relative viability (IA-LM; first compound 0.08 µM): 0.809
- relative viability (IA-LM; first compound 0.253 µM): 0.702
- relative viability (IA-LM; first compound 0.8 µM): 1.1
- relative viability (IA-LM; first compound 2.53 µM): 0.975
- relative viability (LCLC-97TM1; first compound 0.08 µM): 0.272
- relative viability (LCLC-97TM1; first compound 0.253 µM): 0.374
- relative viability (LCLC-97TM1; first compound 0.8 µM): 0.351
- relative viability (LCLC-97TM1; first compound 2.53 µM): 0.435
- relative viability (NCI-H1299; first compound 0.08 µM): 0.949
- relative viability (NCI-H1299; first compound 0.253 µM): 0.924
- relative viability (NCI-H1299; first compound 0.8 µM): 0.95
- relative viability (NCI-H1299; first compound 2.53 µM): 0.968
- relative viability (NCI-H1355; first compound 0.08 µM): 1.07
- relative viability (NCI-H1355; first compound 0.253 µM): 1.07
- relative viability (NCI-H1355; first compound 0.8 µM): 1.12
- relative viability (NCI-H1355; first compound 2.53 µM): 0.974
- relative viability (NCI-H1703; first compound 0.08 µM): 0.722
- relative viability (NCI-H1703; first compound 0.253 µM): 0.756
- relative viability (NCI-H1703; first compound 0.8 µM): 0.864
- relative viability (NCI-H1703; first compound 2.53 µM): 0.555
- relative viability (NCI-H1993; first compound 0.253 µM): 0.915
- relative viability (NCI-H1993; first compound 0.8 µM): 0.73
- relative viability (NCI-H1993; first compound 2.53 µM): 1.04
- relative viability (NCI-H23; first compound 0.08 µM): 0.54
- relative viability (NCI-H23; first compound 0.253 µM): 0.552
- relative viability (NCI-H23; first compound 0.8 µM): 0.565
- relative viability (NCI-H23; first compound 2.53 µM): 0.593
- relative viability (NCI-H322M; first compound 0.08 µM): 0.932
- relative viability (NCI-H322M; first compound 0.253 µM): 0.901
- relative viability (NCI-H322M; first compound 0.8 µM): 0.496
- relative viability (NCI-H322M; first compound 2.53 µM): 0.934
- relative viability (NCI-H596; first compound 0.08 µM): 0.942
- relative viability (NCI-H596; first compound 0.253 µM): 0.898
- relative viability (NCI-H596; first compound 0.8 µM): 0.989
- relative viability (NCI-H596; first compound 2.53 µM): 0.957
- relative viability (UMC-11; first compound 0.08 µM): 0.606
- relative viability (UMC-11; first compound 0.253 µM): 0.64
- relative viability (UMC-11; first compound 0.8 µM): 0.62
- relative viability (UMC-11; first compound 2.53 µM): 0.568
